Assay results reported in publication PMC3093627 (Research in Pharmaceutical Sciences, 2010).

Legend:
MDCK II cells = conditions: probenecid 10 μM, d-glucose 5 μM, digoxin 5 μM, M6G 100 μg/ml, cyclosporin 10 μM
Protocol: Madin-Darby Canine Kidney epithelial cell lines (MDCK-II, passages 3-7), and MDCK I-MDR (MDCK-PGP or MDCK WT, passages)([6]–[10]) were purchased from Borst- Amsterdam. MDCK-PGP is a MDCK-II recombinant clone containing the human MDR-I PGP gene.
When cell growth and cell number were sufficient, the cells were transferred into the transwells. The number of cells in each well was calculated using Eq. 1
In 48/case plates, with area of 0.3318 Cm^2for each insert, the required cells per insert were 13,272 cells. This number of cells was dispensed in 0.25 ml media for each insert and the cells suspension was poured into apical chambers of the inserts. Each treatment group comprised 4 replicates. One ml of cell free media was added to basal chambers. […]
After completing the incubation period, TEER of each Transwell inserts was measured using an EVOM epithelial voltammeter (WIP, Sarasota, FL) and the Transwell inserts were distributed evenly between treatment groups, based on the TEER measurement. […] The corrected cumulative concentrations of drug were determined based on the amount of removed and added buffer in each series of wells at each interval and the corrected concentrations were used for calculating the apparent permeability coefficient (ρ) according to the Eq. 2: […]

[1] = system: morphine brain distribution; conditions: rats; cited from earlier work

CN1CC[C@]23c4c5ccc(O)c4O[C@H]2[C@@H](O[C@@H]2O[C@H](C(=O)O)[C@@H](O)[C@H](O)[C@H]2O)C=C[C@H]3[C@H]1C5 [M6G, morphine 6 glucoronide]
Effect on morphine permeability via MDCK II cells (MDCK II cells): no significant effects

C[C@H]1O[C@@H](O[C@H]2[C@@H](O)C[C@H](O[C@H]3[C@@H](O)C[C@H](O[C@H]4CC[C@@]5(C)[C@H](CC[C@@H]6[C@@H]5C[C@@H](O)[C@]5(C)[C@@H](C7=CC(=O)OC7)CC[C@]65O)C4)O[C@@H]3C)O[C@@H]2C)C[C@H](O)[C@@H]1O [digoxin]
Effect on morphine permeability via MDCK II cells (MDCK II cells): significant fall

COc1cc2c(cc1OC)CN(CCc1ccc(NC(=O)c3cccc4c(=O)c5cccc(OC)c5[nH]c34)cc1)CC2 [GF120918]
Reduction of morphine brain distribution [1]: 42%
